Measured values reported in US5405861A, “Triazole compounds and antifungal compositions thereof” (Takeda Chemical Industries, Co., Ltd., priority 1989, dated 1995).

Key:
[1] = tested on: Aspergillus fumigatus IFO 6344; test: Antifungal activity, paper disc growth inhibition zone (Table 4); type: cell-based; conditions: IFO6344, 48 h, medium A, 28° C., 2 days, disc soaked in 1000 μg/ml solution in methanol, read-out: Inhibition zone diameter
Description: (§1) The antifungal activities of the compounds (I) were evaluated by the following method: a sheet of filter paper disc (manufactured by Toyo Seisakusho, 8 mm in diameter) soaked in a 1000 μg/ml solution of a compound (I) in methanol was placed on an agar plate, which was incubated at 28° C. for 2 days, and the diameter of the growth inhibition zone around the filter paper disc was measured. The following culture media were used:
(§2) A: yeast nitrogen base agar medium

[2] = tested on: Aspergillus niger IFO 4066; test: as above; type: cell-based; conditions: IFO4066, 48 h, medium A, 28° C., 2 days, disc soaked in 1000 μg/ml solution in methanol, read-out: Inhibition zone diameter
Description: as §1, §2

[3] = tested on: Candida albicans (Ca--O) IFO 0583; test: as above; type: cell-based; conditions: IFO0583, 48 h, medium A, 28° C., 2 days, disc soaked in 1000 μg/ml solution in methanol, read-out: Inhibition zone diameter
Description: as §1, §2

[4] = tested on: Candida albicans IFO 0583; test: as above; type: cell-based; conditions: IFO0583, 48 h, medium A, 28° C., 2 days, disc soaked in 1000 μg/ml solution in methanol, read-out: Inhibition zone diameter
Description: as §1, §2

[5] = tested on: Penicillium chrysogenum IFO 4626; test: as above; type: cell-based; conditions: IFO4626, 48 h, medium A, 28° C., 2 days, disc soaked in 1000 μg/ml solution in methanol, read-out: Inhibition zone diameter
Description: as §1, §2

[6] = tested on: Microsporum gypseum IFO 6075; test: as above; type: cell-based; conditions: Nannizzia gypsea, IFO6075, 48 h; medium C (Sabouraud agar), 28° C., 2 days, disc soaked in 1000 μg/ml solution in methanol; read-out: Inhibition zone diameter
Description: as §1, with “measured.” for “measured. The following culture media were used:”

[7] = tested on: Trichophyton mentagrophytes IFO 7522; test: as above; type: cell-based; conditions: IFO7522, 48 h, medium C (Sabouraud agar), 28° C., 2 days, disc soaked in 1000 μg/ml solution in methanol, read-out: Inhibition zone diameter
Description: as §1, with “measured.” for “measured. The following culture media were used:”

[8] = tested on: Trichophyton rubrum IFO 6467; test: as above; type: cell-based; conditions: IFO6467, 48 h, medium C (Sabouraud agar), 28° C., 2 days, disc soaked in 1000 μg/ml solution in methanol, read-out: Inhibition zone diameter
Description: as §1, with “measured.” for “measured. The following culture media were used:”

[9] = tested on: Candida albicans (IFO 0538); test: Antifungal activity against Candida albicans, paper disc growth inhibition zone (Tables 5 and 6); type: cell-based; conditions: 48 h, pH 7, B medium (yeast nitrogen base agar, pH 7.0), 28° C., 2 days incubation; read-out: Inhibition zone diameter
Description: as §1, §2
B: yeast nitrogen base agar medium (pH 7.0)

Candida albicans = test: Infection-preventing effect in experimental infection in mice, Method 1 (Table 7-1); type: in vivo, Crj:CDF1 mice; conditions: Candida albicans, sc, 168 h, s.c., given 0 and 2 hours after infection; survival 7 days after infection; total dose; read-out: ED50
Description: Method 1 (Table 7-1): To 5-week-old Crj:CDF1 mice the minimum lethal dose of Candida albicans was inoculated intravenously. The test drug was given twice 0 and 2 hours after infection. The effectiveness of the drug was expressed in ED50 values calculated by the Reed and Muench method from the survival rate 7 days after infection. The ED50 values were calculated based on the total dose given on the two occasions.

Row | Structure (SMILES) | zone of inhibition at 1000 µg/mL [1] | zone of inhibition at 1000 µg/mL [2] | zone of inhibition at 1000 µg/mL [3] | zone of inhibition at 1000 µg/mL [4] | zone of inhibition at 1000 µg/mL [5] | zone of inhibition at 1000 µg/mL [6] | zone of inhibition at 1000 µg/mL [7] | zone of inhibition at 1000 µg/mL [8] | zone of inhibition at 1000 µg/mL [9] | ED50 (Candida albicans)
1 | C[C@@H](SCc1ccncc1)[C@](O)(Cn1cncn1)c1ccc(F)cc1F (relative stereo) [Compound 15] | 30 mm | 29 mm | 32 mm | 34 mm | 23 mm | 45 mm | 50 mm | 60 mm | 25 mm | 2.5 mg/kg
2 | C[C@@H](Sc1nc2c(s1)CCC2)[C@](O)(Cn1cncn1)c1ccc(F)cc1F (relative stereo) [Compound 12] | 38 mm | 20 mm | 41 mm | 42 mm | 15 mm | 35 mm | 32 mm | 35 mm | 25 mm | 2.5 mg/kg
